Results as given in patent US20240425464A1, “Substituted Monohydrazides as Potent Antifungal Agents” (University of Kentucky Research Foundation, priority 2023, published 2024).
Values after ≈ are worked out from the molar mass of the structure shown. Read-outs that look alike come from different tables or passages of the source.

Assays:
Type in all cases: cell-based, Candida albicans
[1] = system: C. albicans ATCC 10231 (strain A); assay: MIC determination by in vitro antifungal assay (CLSI broth dilution); settings: strain A = C. albicans ATCC 10231, no visible growth, 48 h at 35° C.
Method: (§1) 10 mg/mL stock solutions of compounds 1a-9j were prepared in dimethyl sulfoxide (DMSO) and were stored at −20° C. in the dark. The antifungal agent amphotericin B (AmB) was purchased from VWR (Radnor PA, USA). AmB was dissolved in DMSO at a final concentration of 5 mg/mL and was stored at −20° C., protected from light. Candida albicans American Type Culture Collection (ATCC) 10231 (strain A), C. albicans ATCC 64124 (B), and C. albicans ATCC MYA-2876 (C) were obtained from Utah State University. C. albicans ATCC 90819 (D), C. albicans ATCC MYA-2310 (E), C. albicans ATCC MYA-1237 (F), C. albicans ATCC MYA-1003 (G), Candida glabrata ATCC 2001 (H), Candida krusei ATCC 6258 (I), Candida parapsilosis ATCC 22019 (J), Cryptococcus neoformans ATCC MYA-895 (M), Aspergillus terreus ATCC MYA-3633 (N), and Aspergillus flavus ATCC MYA-3631 (0) were obtained from the American Type Culture Collection (ATCC; Manassas, VA, USA). Aspergillus nidulans ATCC 38163 (P) was obtained from University of Kentucky. Clinically derived Aspergillus fumigatus NRRL 163 (Q), A. fumigatus NRRL 5109 (R), and A. fumigatus NRRL 6113 (S) were obtained from Northern Regional Research Laboratory (NRRL). Candida auris 384 (K), C. auris 390 (L), and fungal strains 381-400 (including 10 C. auris (AR Bank #381-390), 3 Candida duobushaemulonii (AR Bank #391, AR Bank #392, and AR Bank #394), 2 Candida haemulonii (AR Bank #393 and AR Bank #395), 1 Kodameae ohmeri (AR Bank #396), 1 C. krusei (AR Bank #397), 1 Candida lusitaniae (AR Bank #398), and 2 Saccharomyces cerevisiae strains (AR Bank #399 and AR Bank #400)) were part of a larger fungal library from the AR Bank maintained by the Centers for Disease Control and Prevention (CDC; Atlanta, GA, USA). Filamentous fungi and yeasts were cultivated at 35° C. in RPMI 1640 medium (with L-glutamine, without sodium bicarbonate, Sigma-Aldrich, St. Louis, MO) buffered to a pH of 7.0 with 0.165 M morpholinepropanesulfonic acid (MOPS) buffer (Sigma-Aldrich). For cytotoxicity assays, HepG2 and the mouse macrophage cell line J774A.1 were obtained from University of Kentucky. The human embryonic kidney cell line, HEK-293, was bought from the ATCC. Mammalian cells were grown in Dulbecco's Modified Eagle's Medium (DMEM) (from VWR) with 10% fetal bovine serum (FBS) (from VWR) and 1% Pen/Strep (from ATCC). Cell lines were cultured at 37° C. with 5% CO2 and passaged by trypsinization with 0.05% trypsin: 0.53 mM EDTA (from Sigma-Aldrich).
(§2) The MIC values of compounds 1a-9j against yeast cells (strains A-P and 381-400) were determined in 96-well plates as described in the CLSI documents M27-A3 and M38-A2 with minor modifications.^2 A single colony of freshly prepared yeast cells was used to inoculate 5 mL of yeast extract peptone dextrose (YPD) broth prior to incubation overnight with shaking at 200 rpm at 35° C. From the actively growing yeast culture, 100 µL were then transferred to 900 μL of RPMI 1640 medium and re-adjusted to achieve OD600 of 0.12 (˜1×10^6 CFU/mL). The cell suspension was further diluted to achieve 1:100 in RPMI 1640 medium. 100 μL of cells were added to the wells of a 96-well microtiter plates that contained 100 µL of the compound solution to obtain concentrations of 0.06-31.3 μg/mL of compounds 1a-9j or AmB prior to incubation for 48 h at 35° C. […]

[2] = system: C. albicans ATCC MYA-2310 (E); assay: MIC determination by in vitro antifungal assay; settings: strain E = C. albicans ATCC MYA-2310
Method: as §1, §2

[3] = system: C. albicans ATCC MYA-2876 (C); assay: MIC determination by in vitro antifungal assay; settings: strain C = C. albicans ATCC MYA-2876(S)
Method: as §1, §2

[4] = system: C. albicans ATCC 64124 (B); assay: MIC determination by in vitro antifungal assay
Method: as §1, §2

[5] = system: C. albicans ATCC 90819 (D); assay: MIC determination by in vitro antifungal assay
Method: as §1, §2

[6] = system: C. albicans ATCC MYA-1003 (G); assay: MIC determination by in vitro antifungal assay; settings: strain G = C. albicans ATCC MYA-1063(R) (footnote), MYA-1003 in text
Method: as §1, §2

[7] = system: C. albicans ATCC MYA-1237 (F); assay: MIC determination by in vitro antifungal assay; settings: strain F = C. albicans ATCC MYA-1237(R)
Method: as §1, §2

[8] = Candida albicans, ATCC10231, 48 h, read-out: MIC
[9] = Candida albicans, read-out: MIC
[10] = Candida albicans, ATCC64124, strain B = C. albicans ATCC 64124, read-out: MIC
[11] = Candida albicans, ATCC90819, strain D = C. albicans ATCC 90819(R), read-out: MIC
[12] = strain B = C. albicans ATCC 64124
[13] = strain D = C. albicans ATCC 90819(R)

Structure (SMILES) | MIC [1, 8] [µg/mL] | MIC [2, 9] [µg/mL] | MIC [3, 9] [µg/mL] | MIC [4, 10] [µg/mL] | MIC [5, 11] [µg/mL] | MIC [6, 9] [µg/mL] | MIC [7, 9] [µg/mL] | MIC [1] [μg/mL^−1] | MIC [2] [μg/mL^−1] | MIC [3] [μg/mL^−1] | MIC [4, 12] [μg/mL^−1] | MIC [5, 13] [μg/mL^−1] | MIC [6] [μg/mL^−1] | MIC [7] [μg/mL^−1]
O=C(NNc1ccc(F)cc1F)c1cnccn1 [Compound 9g] | 0.24 (≈ 0.959 µM) | 3.9 (≈ 15.6 µM) | 0.98 (≈ 3.92 µM) | 0.98 (≈ 3.92 µM) | 0.98 (≈ 3.92 µM) | 0.49 (≈ 1.96 µM) | 0.49 (≈ 1.96 µM) |  |  |  |  |  |  | 
O=C(NNc1ccc(F)cc1)c1ccc(F)cn1 [Compound 3d] |  |  |  |  |  |  |  | 0.49 | 3.9 | 3.9 | 1.95 | 1.95 | 1.95 | 1.95
O=C(NNc1cccc(F)c1)c1cccc(Br)n1 [Compound 6a] |  |  |  |  |  |  |  | 0.49 | 3.9 | 1.95 | 1.95 | 7.8 | 3.9 | 3.9
O=C(NNc1ccc(F)cc1F)c1cccc(F)n1 [Compound 5g] | 0.98 (≈ 3.67 µM) | 1.95 (≈ 7.3 µM) | 1.95 (≈ 7.3 µM) | 1.95 (≈ 7.3 µM) | 3.9 (≈ 14.6 µM) | 0.98 (≈ 3.67 µM) | 1.95 (≈ 7.3 µM) |  |  |  |  |  |  | 
O=C(NNc1ccc(F)cc1)c1ccccn1 [Compound 2d] | 0.12 (≈ 0.519 µM) | 1.95 (≈ 8.43 µM) | 3.9 (≈ 16.9 µM) | 0.98 (≈ 4.24 µM) | 0.98 (≈ 4.24 µM) | 0.49 (≈ 2.12 µM) | 1.95 (≈ 8.43 µM) |  |  |  |  |  |  | 
COc1ccc(NNC(=O)c2ccc(F)cn2)cc1 [Compound 3f] |  |  |  |  |  |  |  | 0.24 | 0.98 | 0.98 | 0.98 | 0.98 | 0.49 | 0.49
O=C(NNc1ccc(Cl)cc1)c1ncc(F)cc1F [Compound 7e] |  |  |  |  |  |  |  | 3.9 | 1.95 | 3.9 | 3.9 | 7.8 | 1.95 | 0.49
O=C(NNc1ccc(Cl)cc1)c1cnccn1 [Compound 9e] |  |  |  |  |  |  |  | 0.98 | 1.95 | 3.9 | 1.95 | 0.98 | 1.95 | 0.98
COc1ccc(NNC(=O)c2cccc(Br)n2)cc1 [Compound 6f] | 1.95 (≈ 6.05 µM) | 3.9 (≈ 12.1 µM) | 1.95 (≈ 6.05 µM) | 3.9 (≈ 12.1 µM) | 3.9 (≈ 12.1 µM) | 3.9 (≈ 12.1 µM) | 0.98 (≈ 3.04 µM) |  |  |  |  |  |  | 
O=C(NNc1ccc(F)cc1F)c1nc(F)ccc1F [Compound 8g] | 0.98 (≈ 3.44 µM) | 1.95 (≈ 6.84 µM) | 1.95 (≈ 6.84 µM) | 1.95 (≈ 6.84 µM) | 3.9 (≈ 13.7 µM) | 0.98 (≈ 3.44 µM) | 1.95 (≈ 6.84 µM) |  |  |  |  |  |  | 
O=C(NNc1ccc(F)cc1)c1ccc(Br)cn1 [Compound 4d] | 1.95 (≈ 6.29 µM) | 7.8 (≈ 25.2 µM) | 7.8 (≈ 25.2 µM) | 7.8 (≈ 25.2 µM) | 7.8 (≈ 25.2 µM) | 1.9 (≈ 6.13 µM) | 7.8 (≈ 25.2 µM) |  |  |  |  |  |  | 
COc1cccc(NNC(=O)c2ccc(F)cc2F)c1 [Compound 1c] | 0.98 (≈ 3.52 µM) | 3.9 (≈ 14 µM) | 3.9 (≈ 14 µM) | 1.95 (≈ 7.01 µM) | 3.9 (≈ 14 µM) | 1.95 (≈ 7.01 µM) | 3.9 (≈ 14 µM) |  |  |  |  |  |  | 
O=C(NNc1cccc(F)c1)c1nc(F)ccc1F [Compound 8a] |  |  |  |  |  |  |  | 0.98 | 1.95 | 1.95 | 0.98 | 3.9 | 0.98 | 1.95
COc1cccc(NNC(=O)c2ccc(Br)cn2)c1 [Compound 4c] | 0.98 (≈ 3.04 µM) | 1.95 (≈ 6.05 µM) | 0.49 (≈ 1.52 µM) | 0.98 (≈ 3.04 µM) | 3.9 (≈ 12.1 µM) | 0.98 (≈ 3.04 µM) | 1.95 (≈ 6.05 µM) |  |  |  |  |  |  | 
O=C(NNc1cccc(Cl)c1)c1ccc(F)cc1F [Compound 1b] | 1.95 (≈ 6.9 µM) | 7.8 (≈ 27.6 µM) | 7.8 (≈ 27.6 µM) | 7.8 (≈ 27.6 µM) | 15.6 (≈ 55.2 µM) | 3.9 (≈ 13.8 µM) | 3.9 (≈ 13.8 µM) |  |  |  |  |  |  | 
O=C(NNc1cccc(F)c1)c1ccc(F)cn1 [Compound 3a] |  |  |  |  |  |  |  | 0.49 | 3.9 | 3.9 | 0.49 | 3.9 | 1.95 | 3.9
O=C(NNc1ccc(F)cc1F)c1ccc(F)cc1F [Compound 1g] | 1.95 (≈ 6.86 µM) | > 31.3 | 3.9 (≈ 13.7 µM) | 1.95 (≈ 6.86 µM) | 3.9 (≈ 13.7 µM) | 0.98 (≈ 3.45 µM) | 1.95 (≈ 6.86 µM) |  |  |  |  |  |  | 
O=C(NNc1cc(F)ccc1F)c1cnccn1 [Compound 9h] | 0.24 (≈ 0.959 µM) | > 31.3 | 3.9 (≈ 15.6 µM) | 7.8 (≈ 31.2 µM) | 3.9 (≈ 15.6 µM) | 1.95 (≈ 7.79 µM) | 3.9 (≈ 15.6 µM) |  |  |  |  |  |  | 
COc1cccc(NNC(=O)c2ncc(F)cc2F)c1 [Compound 7c] | 0.98 (≈ 3.51 µM) | 3.9 (≈ 14 µM) | 3.9 (≈ 14 µM) | 1.95 (≈ 6.98 µM) | 7.8 (≈ 27.9 µM) | 1.95 (≈ 6.98 µM) | 3.9 (≈ 14 µM) |  |  |  |  |  |  | 
O=C(NNc1ccc(Cl)cc1)c1ccccn1 [Compound 2e] |  |  |  |  |  |  |  | 0.12 | 0.98 | 1.95 | 0.98 | 0.24 | 0.98 | 0.98
O=C(NNc1cccc(Cl)c1)c1ccccn1 [Compound 2b] |  |  |  |  |  |  |  | 0.12 | 0.98 | 0.98 | 0.98 | 0.49 | 0.49 | 0.98
O=C(NNc1ccc(F)cc1)c1cccc(Br)n1 [Compound 6d] | 0.98 (≈ 3.16 µM) | 3.9 (≈ 12.6 µM) | 3.9 (≈ 12.6 µM) | 1.95 (≈ 6.29 µM) | 3.9 (≈ 12.6 µM) | 1.95 (≈ 6.29 µM) | 3.9 (≈ 12.6 µM) |  |  |  |  |  |  | 
O=C(NNc1ccc(F)cc1)c1cccc(F)n1 [Compound 5d] | 0.24 (≈ 0.963 µM) | 3.9 (≈ 15.6 µM) | 1.95 (≈ 7.82 µM) | 0.98 (≈ 3.93 µM) | 1.95 (≈ 7.82 µM) | 0.98 (≈ 3.93 µM) | 1.95 (≈ 7.82 µM) |  |  |  |  |  |  | 
